Assay results from patent US20250134855A1, “CO[…] AND METHODS OF USING SAME” (LYKOS THERAPEUTICS, INC., priority 2022, published 2025).
Like-named read-outs stand apart in the source and are kept apart here.

Assay: Study MPKF: plasma pharmacokinetics of MDMA and MDA, single 120 mg MDMA·HCl, fasted/fed
Type: in vivo, human
Conditions: for Tmax: median
Text: The MPKF was a Phase 1, open-label, randomized sequence, multi-dose, 2-period crossover food effect study in 16 healthy individuals. The MPKF study evaluated plasma concentrations of both MDMA and the active metabolite 3,4-methylenedioxyamphetamine (MDA). Summary PK Parameters of the preliminary data was based on interim analysis are presented in Table 12 Table 12 Table 12, and Table 13 Table 13 Table 13 for MDMA and MDA, respectively.
Participants were randomized to receive 1 of 2 conditions before the other: • Fasted Treatment: at least 10 hours of fasting followed by administration of MDMA HCl with 240 mL water. • Fed Treatment: at least 10 hours of fasting followed by a high-fat (approximately 50% of total caloric content of the meal) and high-calorie (approximately 800 to 1000 calories) meal was consumed within 30 minutes prior to IMP administration.
Participants remained at the clinical research unit (CRU) for each Dosing Session from the time of check-in on the night before dosing until discharge 48 hours after dosing for collection of serial blood samples for PK analysis and safety monitoring. IMP was administered on Day 1 following the treatment sequence to which the participant was randomized. An additional outpatient visit occurred 72 hours after dosing to collect a final PK sample, commensurate with the expected PK profiles of MDMA and MDA. Safety assessments were also performed at this visit.
The washout period between Dosing Sessions was at least 14 days. If a participant experienced emesis within 4 hours of administration, they were to be withdrawn from the study and replaced with a new participant. An End of Study Visit was performed 2 to 10 days after the completion of the final Dosing Session 72-hour follow-up. An informal interim analysis was planned to be conducted after at least 5 participants completed at least 1 Dosing Session to examine PK variability.
The API was a white crystalline powder of pharmaceutical quality, made according to current Good Manufacturing Practices (cGMP) for human use.
Participants: Sixteen healthy individuals were recruited for the study.
Intervention: The study was conducted as a Phase 1, open-label, randomized sequence, multi-dose, 2-period crossover food effect study. Each participant received multiple doses of MDMA, and plasma concentrations of both MDMA and the active metabolite MDA were measured.
Sample Collection: Blood samples were collected at various time points up to 72 hours after dosing. The samples were analyzed using validated liquid chromatography-tandem mass spectrometry (LC-MS/MS) methods.
Data Analysis: The summary PK parameters were presented in Table 12 for MDMA and Table 13 for MDA. The data were analyzed using descriptive statistics, and the mean and standard deviation were calculated. The results were compared between the two periods and analyzed for food effects. Statistical analyses were performed using appropriate methods, such as analysis of variance (ANOVA) and paired t-tests. A p-value of less than 0.05 was considered statistically significant.

[1] = Fasted (N = 15), 120 mg MDMA·HCl, geometric mean
[2] = Fed (N = 14), 120 mg MDMA·HCl, geometric mean

In the case of CC(N)Cc1ccc2c(c1)OCO2 (centres unmarked) [MDA, 3,4-methylenedioxyamphetamine], the “higher plasma PK values in intermediate relative to normal CYP2D6 metabolizers” value (8 intermediate, 8 normal metabolizers) is reported as “approximately 13%”, the “Cmax, Geometric LSM” value (Fasted) is reported as 12.39 ng/mL and the CL/F [1] is reported as 302.8 L/h. The Cmax [1] was 12 ng/mL, the Tlag [1] was 0.6 h and the Tmax (Fasted (N = 15), 120 mg MDMA·HCl) was 6 h. The “Cmax, Geometric LSM” value (Fed) was 11.92 ng/mL, the CL/F [2] was 270.7 L/h and the Cmax [2] was 12 ng/mL. It also gave a Tlag [2] of 0.7 h, a Tmax (Fed (N = 14), 120 mg MDMA·HCl) of 7 h and a Cmax (both sexes, human, plasma, po, single 120 mg dose of MDMA·HCl, fasting healthy males and females, read-out: Cmax) of 13.3 ng/mL. The “AUC0-72, Geometric Mean Ratio” value (fed vs fasted) was 0.98, the “AUC0-inf, Geometric Mean Ratio” value (fed vs fasted) was 0.99 and the “AUC0-t, Geometric Mean Ratio” value (fed vs fasted) was 0.90. The “Cmax, Geometric Mean Ratio” value (fed vs fasted) was 0.96, the “effect of food on exposure” value (high-fat meal vs fasting, single 120 mg MDMA·HCl) was “not affected by food” and the “AUC0-inf of MDA relative to MDMA” value (human, plasma, oral, 120 mg) was “less than 10%”. For the same compound, the “peak plasma levels of MDA relative to MDMA” value (human, plasma, oral, 120 mg) was “less than 10%”, the AUC(0-t) (human, plasma, oral, 120 mg, Fasted, read-out: AUC0-72, Geometric LSM) was 312 ng·h/mL and the AUC(0-inf) (human, plasma, oral, 120 mg, Fasted, read-out: AUC0-inf, Geometric LSM) was 331 ng·h/mL. It also gave an AUC(0-t) (human, plasma, oral, 120 mg, Fasted, read-out: AUC0-t, Geometric LSM) of 282 ng·h/mL, an AUC(0-t) (human, plasma, oral, 120 mg, Fed, read-out: AUC0-72, Geometric LSM) of 306 ng·h/mL and an AUC(0-inf) (human, plasma, oral, 120 mg, Fed, read-out: AUC0-inf, Geometric LSM) of 328 ng·h/mL. For the same compound, the AUC(0-t) (human, plasma, oral, 120 mg, Fed, read-out: AUC0-t, Geometric LSM) was 254 ng·h/mL, the Vd/F (human, plasma, po, 120 mg, Fasted (N = 15), 120 mg MDMA·HCl, geometric mean) was 5520 L and the AUC(0-t) (human, plasma, po, 120 mg, Fasted (N = 15), 120 mg MDMA·HCl, geometric mean, read-out: AUC0-72) was 313 ng·h/mL. For the same compound, the AUC(0-inf) (human, plasma, po, 120 mg, Fasted (N = 15), 120 mg MDMA·HCl, geometric mean, read-out: AUC0-inf) was 330 ng·h/mL, the AUC(0-t) (human, plasma, po, 120 mg, Fasted (N = 15), 120 mg MDMA·HCl, geometric mean, read-out: AUC0-t) was 282 ng·h/mL and the half-life (human, plasma, po, 120 mg, Fasted (N = 15), 120 mg MDMA·HCl, geometric mean, read-out: T1/2 (converted)) was 12.6 h. For the same compound, the Vd/F (human, plasma, po, 120 mg, Fed (N = 14), 120 mg MDMA·HCl, geometric mean) was 5000 L, the AUC(0-t) (human, plasma, po, 120 mg, Fed (N = 14), 120 mg MDMA·HCl, geometric mean, read-out: AUC0-72) was 322 ng·h/mL and the AUC(0-inf) (human, plasma, po, 120 mg, Fed (N = 14), 120 mg MDMA·HCl, geometric mean, read-out: AUC0-inf) was 369 ng·h/mL. The AUC(0-t) (human, plasma, po, 120 mg, Fed (N = 14), 120 mg MDMA·HCl, geometric mean, read-out: AUC0-t) was 255 ng·h/mL, the half-life (human, plasma, po, 120 mg, Fed (N = 14), 120 mg MDMA·HCl, geometric mean, read-out: T1/2 (converted)) was 12.8 h and the AUC(0-inf) (human, plasma, po, 120 mg, single 120 mg dose of MDMA·HCl, fasting, read-out: AUC0-inf) was 374 ng·h/mL. It also gave a half-life (human, plasma, po, 120 mg, single 120 mg dose of MDMA·HCl, fasting, read-out: t1/2 (converted)) of 12.8 h and a Tmax (single 120 mg dose of MDMA·HCl, fasting) of 6 h.
